Source: patent US20250176599A1, “FLAVOR COMPOSITION AND FOOD AND BEVERAGE” (TAKASAGO INTERNATIONAL CORPORATION, priority 2021, published 2025)

Assays:
[1] = Sensory evaluation of aqueous solution I containing (E)-2-nonenal 1 ppb: off-flavor intensity and masking component intensity
Procedure, shortened: (§1)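 Relative off-flavor ratings (0–4) used the unmasked degradant solution as 4 and pure ion-exchanged water as 0. Intensity of the added nootkatone was scored absolutely, 0–4, by eight experienced panelists.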

[2] = Sensory evaluation of aqueous solution II containing (E)-2-octenal 10 ppb: off-flavor intensity and masking component intensity
Procedure, shortened: as §1

[3] = Sensory evaluation of aqueous solution III containing 1-octen-3-one 1 ppb: off-flavor intensity and masking component intensity
Procedure, shortened: as §1

[4] = Sensory evaluation of aqueous solution IV containing 1,5-octadien-3-one 100 ppt: off-flavor intensity and masking component intensity
Procedure, shortened: as §1

[5] = Sensory evaluation of aqueous solution V containing 1-octen-3-ol 10 ppb: off-flavor intensity and masking component intensity
Procedure, shortened: as §1

[6] = Sensory evaluation of aqueous solution VI containing 1,5-octadien-3-ol 10 ppb: off-flavor intensity and masking component intensity
Procedure, shortened: as §1

[7] = Overall conclusion of the sensory evaluation across aqueous solutions I to VI
Procedure, shortened: as §1

[8] = 0.01 ppt added, average panel score
[9] = 0.1 ppt added, average panel score
[10] = 1 ppb added, average panel score
[11] = 1 ppm added, average panel score
[12] = 1 ppt added, average panel score
[13] = 10 ppb added, average panel score
[14] = 10 ppt added, average panel score
[15] = 100 ppb added, average panel score
[16] = 100 ppt added, average panel score
[17] = aqueous solution IV, 0.01 ppt added, average panel score
[18] = aqueous solution IV, 0.1 ppt added, average panel score
[19] = aqueous solution IV, 1 ppb added, average panel score
[20] = aqueous solution IV, 1 ppm added, average panel score
[21] = aqueous solution IV, 1 ppt added, average panel score
[22] = aqueous solution IV, 10 ppb added, average panel score
[23] = aqueous solution IV, 10 ppt added, average panel score
[24] = aqueous solution IV, 100 ppb added, average panel score
[25] = aqueous solution IV, 100 ppt added, average panel score
[26] = aqueous solution VI, 0.01 ppt added, average panel score
[27] = aqueous solution VI, 0.1 ppt added, average panel score
[28] = aqueous solution VI, 1 ppb added, average panel score
[29] = aqueous solution VI, 1 ppm added, average panel score
[30] = aqueous solution VI, 1 ppt added, average panel score
[31] = aqueous solution VI, 10 ppb added, average panel score
[32] = aqueous solution VI, 10 ppt added, average panel score
[33] = aqueous solution VI, 100 ppb added, average panel score
[34] = aqueous solution VI, 100 ppt added, average panel score

## CC(=O)/C=C/C1C(C)=CCCC1(C)C (stereo not drawn) [α-Ionone, α-ionone]
[1]; 0.1 ppt added, (E)-2-nonenal 1 ppb, average score 0-4
  Off-Flavor Intensity: 3.9 points
[1]; 1 ppb added, (E)-2-nonenal 1 ppb, average score 0-4
  Off-Flavor Intensity: 2.3 points
[1]; 1 ppm added, (E)-2-nonenal 1 ppb, average score 0-4
  Off-Flavor Intensity: 0.6 points
[1]; 1 ppt added, (E)-2-nonenal 1 ppb, average score 0-4
  Off-Flavor Intensity: 3.6 points
[1]; 10 ppb added, (E)-2-nonenal 1 ppb, average score 0-4
  Off-Flavor Intensity: 1.8 points
[1]; 10 ppm added, (E)-2-nonenal 1 ppb, average score 0-4
  Off-Flavor Intensity: 0.3 points
[1]; 10 ppt added, (E)-2-nonenal 1 ppb, average score 0-4
  Off-Flavor Intensity: 3.1 points
[1]; 100 ppb added, (E)-2-nonenal 1 ppb, average score 0-4
  Off-Flavor Intensity: 1.3 points
[1]; 100 ppt added, (E)-2-nonenal 1 ppb, average score 0-4
  Off-Flavor Intensity: 2.6 points
[2]; 0.1 ppt added, (E)-2-octenal 10 ppb, average score 0-4
  Off-Flavor Intensity: 3.1 points
[2]; 1 ppb added, (E)-2-octenal 10 ppb, average score 0-4
  Off-Flavor Intensity: 1.9 points
[2]; 1 ppm added, (E)-2-octenal 10 ppb, average score 0-4
  Off-Flavor Intensity: 0.1 points
[2]; 1 ppt added, (E)-2-octenal 10 ppb, average score 0-4
  Off-Flavor Intensity: 2.9 points
[2]; 10 ppb added, (E)-2-octenal 10 ppb, average score 0-4
  Off-Flavor Intensity: 1.5 points
[2]; 10 ppm added, (E)-2-octenal 10 ppb, average score 0-4
  Off-Flavor Intensity: 0.0 points
[2]; 10 ppt added, (E)-2-octenal 10 ppb, average score 0-4
  Off-Flavor Intensity: 2.5 points
[2]; 100 ppb added, (E)-2-octenal 10 ppb, average score 0-4
  Off-Flavor Intensity: 0.8 points
[2]; 100 ppt added, (E)-2-octenal 10 ppb, average score 0-4
  Off-Flavor Intensity: 2.4 points
[3]; 0.1 ppt added, 1-octen-3-one 1 ppb, average score 0-4
  Off-Flavor Intensity: 3.6 points
[3]; 1 ppb added, 1-octen-3-one 1 ppb, average score 0-4
  Off-Flavor Intensity: 2.4 points
[3]; 1 ppm added, 1-octen-3-one 1 ppb, average score 0-4
  Off-Flavor Intensity: 0.8 points
[3]; 1 ppt added, 1-octen-3-one 1 ppb, average score 0-4
  Off-Flavor Intensity: 3.4 points
[3]; 10 ppb added, 1-octen-3-one 1 ppb, average score 0-4
  Off-Flavor Intensity: 1.9 points
[3]; 10 ppm added, 1-octen-3-one 1 ppb, average score 0-4
  Off-Flavor Intensity: 0.1 points
[3]; 10 ppt added, 1-octen-3-one 1 ppb, average score 0-4
  Off-Flavor Intensity: 3.0 points
[3]; 100 ppb added, 1-octen-3-one 1 ppb, average score 0-4
  Off-Flavor Intensity: 1.6 points
[3]; 100 ppt added, 1-octen-3-one 1 ppb, average score 0-4
  Off-Flavor Intensity: 2.8 points
[4]; 0.1 ppt added, aqueous solution IV, 1,5-octadien-3-one 100 ppt, average score 0-4
  Off-Flavor Intensity: 3.5 points
[4]; 1 ppb added, aqueous solution IV, 1,5-octadien-3-one 100 ppt, average score 0-4
  Off-Flavor Intensity: 2.4 points
[4]; 1 ppm added, aqueous solution IV, 1,5-octadien-3-one 100 ppt, average score 0-4
  Off-Flavor Intensity: 1.0 points
[4]; 1 ppt added, aqueous solution IV, 1,5-octadien-3-one 100 ppt, average score 0-4
  Off-Flavor Intensity: 3.4 points
[4]; 10 ppb added, aqueous solution IV, 1,5-octadien-3-one 100 ppt, average score 0-4
  Off-Flavor Intensity: 2.1 points
[4]; 10 ppm added, aqueous solution IV, 1,5-octadien-3-one 100 ppt, average score 0-4
  Off-Flavor Intensity: 0.1 points
[4]; 10 ppt added, aqueous solution IV, 1,5-octadien-3-one 100 ppt, average score 0-4
  Off-Flavor Intensity: 3.1 points
[4]; 100 ppb added, aqueous solution IV, 1,5-octadien-3-one 100 ppt, average score 0-4
  Off-Flavor Intensity: 1.6 points
[4]; 100 ppt added, aqueous solution IV, 1,5-octadien-3-one 100 ppt, average score 0-4
  Off-Flavor Intensity: 2.9 points
[5]; 0.1 ppt added, 1-octen-3-ol 10 ppb, average score 0-4
  Off-Flavor Intensity: 3.1 points
[5]; 1 ppb added, 1-octen-3-ol 10 ppb, average score 0-4
  Off-Flavor Intensity: 1.9 points
[5]; 1 ppm added, 1-octen-3-ol 10 ppb, average score 0-4
  Off-Flavor Intensity: 0.5 points
[5]; 1 ppt added, 1-octen-3-ol 10 ppb, average score 0-4
  Off-Flavor Intensity: 3.0 points
[5]; 10 ppb added, 1-octen-3-ol 10 ppb, average score 0-4
  Off-Flavor Intensity: 1.5 points
[5]; 10 ppm added, 1-octen-3-ol 10 ppb, average score 0-4
  Off-Flavor Intensity: 0.0 points
[5]; 10 ppt added, 1-octen-3-ol 10 ppb, average score 0-4
  Off-Flavor Intensity: 2.5 points
[5]; 100 ppb added, 1-octen-3-ol 10 ppb, average score 0-4
  Off-Flavor Intensity: 1.0 points
[5]; 100 ppt added, 1-octen-3-ol 10 ppb, average score 0-4
  Off-Flavor Intensity: 2.3 points
[6]; 0.1 ppt added, aqueous solution VI, 1,5-octadien-3-ol 10 ppb, average score 0-4
  Off-Flavor Intensity: 3.1 points
[6]; 1 ppb added, aqueous solution VI, 1,5-octadien-3-ol 10 ppb, average score 0-4
  Off-Flavor Intensity: 1.8 points
[6]; 1 ppm added, aqueous solution VI, 1,5-octadien-3-ol 10 ppb, average score 0-4
  Off-Flavor Intensity: 0.1 points
[6]; 1 ppt added, aqueous solution VI, 1,5-octadien-3-ol 10 ppb, average score 0-4
  Off-Flavor Intensity: 2.9 points
[6]; 10 ppb added, aqueous solution VI, 1,5-octadien-3-ol 10 ppb, average score 0-4
  Off-Flavor Intensity: 1.5 points
[6]; 10 ppm added, aqueous solution VI, 1,5-octadien-3-ol 10 ppb, average score 0-4
  Off-Flavor Intensity: 0.0 points
[6]; 10 ppt added, aqueous solution VI, 1,5-octadien-3-ol 10 ppb, average score 0-4
  Off-Flavor Intensity: 2.5 points
[6]; 100 ppb added, aqueous solution VI, 1,5-octadien-3-ol 10 ppb, average score 0-4
  Off-Flavor Intensity: 0.8 points
[6]; 100 ppt added, aqueous solution VI, 1,5-octadien-3-ol 10 ppb, average score 0-4
  Off-Flavor Intensity: 2.0 points
[7]
  concentration that masks the off-flavor and does not affect the flavor of the food and/or beverage itself, lower limit: ≥ 1 ppt
  concentration that masks the off-flavor and does not affect the flavor of the food and/or beverage itself, upper limit: ≤ 100 ppb

## CC(=O)/C(C)=C/C1C(C)=CCCC1(C)C (stereo not shown) [γ-methyl ionone]
[1]; [8]
  Masking Component Intensity: 0.3
  Off-Flavor Intensity: 3.8
[1]; [9]
  Masking Component Intensity: 0.6
  Off-Flavor Intensity: 3.4
[1]; [10]
  Masking Component Intensity: 2.0
  Off-Flavor Intensity: 2.1
[1]; [11]
  Masking Component Intensity: 4.0
  Off-Flavor Intensity: 0.3
[1]; [12]
  Masking Component Intensity: 0.8
  Off-Flavor Intensity: 3.1
[1]; [13]
  Masking Component Intensity: 2.5
  Off-Flavor Intensity: 1.6
[1]; [14]
  Masking Component Intensity: 1.1
  Off-Flavor Intensity: 2.5
[1]; [15]
  Masking Component Intensity: 3.5
  Off-Flavor Intensity: 1.0
[1]; [16]
  Masking Component Intensity: 1.5
  Off-Flavor Intensity: 2.4
[2]; [8]
  Masking Component Intensity: 0.4
  Off-Flavor Intensity: 3.3
[2]; [9]
  Masking Component Intensity: 0.5
  Off-Flavor Intensity: 3.1
[2]; [10]
  Masking Component Intensity: 2.1
  Off-Flavor Intensity: 1.5
[2]; [11]
  Masking Component Intensity: 4.0
  Off-Flavor Intensity: 0.3
[2]; [12]
  Masking Component Intensity: 0.8
  Off-Flavor Intensity: 2.8
[2]; [13]
  Masking Component Intensity: 2.8
  Off-Flavor Intensity: 1.1
[2]; [14]
  Masking Component Intensity: 1.3
  Off-Flavor Intensity: 2.5
[2]; [15]
  Masking Component Intensity: 3.8
  Off-Flavor Intensity: 0.6
[2]; [16]
  Masking Component Intensity: 1.5
  Off-Flavor Intensity: 2.0
[3]; [8]
  Masking Component Intensity: 0.3
  Off-Flavor Intensity: 3.4
[3]; [9]
  Masking Component Intensity: 0.3
  Off-Flavor Intensity: 3.3
[3]; [10]
  Masking Component Intensity: 1.6
  Off-Flavor Intensity: 2.0
[3]; [11]
  Masking Component Intensity: 4.0
  Off-Flavor Intensity: 0.3
[3]; [12]
  Masking Component Intensity: 0.4
  Off-Flavor Intensity: 3.1
[3]; [13]
  Masking Component Intensity: 2.5
  Off-Flavor Intensity: 1.5
[3]; [14]
  Masking Component Intensity: 0.6
  Off-Flavor Intensity: 2.8
[3]; [15]
  Masking Component Intensity: 3.5
  Off-Flavor Intensity: 1.1
[3]; [16]
  Masking Component Intensity: 0.9
  Off-Flavor Intensity: 2.4
[4]; [17]
  Masking Component Intensity: 0.0
  Off-Flavor Intensity: 3.8
[4]; [18]
  Masking Component Intensity: 0.0
  Off-Flavor Intensity: 3.5
[4]; [19]
  Masking Component Intensity: 1.5
  Off-Flavor Intensity: 2.1
[4]; [20]
  Masking Component Intensity: 4.0
  Off-Flavor Intensity: 0.6
[4]; [21]
  Masking Component Intensity: 0.3
  Off-Flavor Intensity: 3.4
[4]; [22]
  Masking Component Intensity: 2.3
  Off-Flavor Intensity: 1.6
[4]; [23]
  Masking Component Intensity: 0.5
  Off-Flavor Intensity: 3.3
[4]; [24]
  Masking Component Intensity: 3.4
  Off-Flavor Intensity: 1.0
[4]; [25]
  Masking Component Intensity: 0.6
  Off-Flavor Intensity: 2.8
[5]; [8]
  Masking Component Intensity: 0.0
  Off-Flavor Intensity: 3.5
[5]; [9]
  Masking Component Intensity: 0.4
  Off-Flavor Intensity: 3.3
[5]; [10]
  Masking Component Intensity: 2.3
  Off-Flavor Intensity: 1.9
[5]; [11]
  Masking Component Intensity: 4.0
  Off-Flavor Intensity: 0.1
[5]; [12]
  Masking Component Intensity: 0.4
  Off-Flavor Intensity: 3.3
[5]; [13]
  Masking Component Intensity: 2.9
  Off-Flavor Intensity: 1.5
[5]; [14]
  Masking Component Intensity: 1.0
  Off-Flavor Intensity: 2.6
[5]; [15]
  Masking Component Intensity: 3.8
  Off-Flavor Intensity: 0.8
[5]; [16]
  Masking Component Intensity: 1.4
  Off-Flavor Intensity: 2.1
[6]; [26]
  Masking Component Intensity: 0.4
  Off-Flavor Intensity: 3.1
[6]; [27]
  Masking Component Intensity: 0.9
  Off-Flavor Intensity: 3.1
[6]; [28]
  Masking Component Intensity: 1.9
  Off-Flavor Intensity: 1.9
[6]; [29]
  Masking Component Intensity: 4.0
  Off-Flavor Intensity: 0.5
[6]; [30]
  Masking Component Intensity: 1.0
  Off-Flavor Intensity: 2.8
[6]; [31]
  Masking Component Intensity: 2.8
  Off-Flavor Intensity: 1.3
[6]; [32]
  Masking Component Intensity: 1.3
  Off-Flavor Intensity: 2.4
[6]; [33]
  Masking Component Intensity: 3.4
  Off-Flavor Intensity: 0.9
[6]; [34]
  Masking Component Intensity: 1.6
  Off-Flavor Intensity: 2.1
[7]
  concentration that masks the off-flavor and does not affect the flavor of the food and/or beverage itself, lower limit: ≥ 1 ppt
  concentration that masks the off-flavor and does not affect the flavor of the food and/or beverage itself, upper limit: ≤ 10 ppb
